The subject of experiment [1] is Pseudomonas aeruginosa. Put plainly: Antibacterial activity against Pseudomonas aeruginosa PAO1 assessed as inhibition of biofilm formation for 24 hrs by crystal violet staining based assay. In kind it is functional, organism-based. The following applies: PAO1, 24 h.
The subject of experiment [2] is Pseudomonas aeruginosa. Put plainly: Antibiofilm activity against Pseudomonas aeruginosa PAO1 assessed as effect on pyochelin production fluorescence at 1.25 to 20 uM by fluorescence assay. It counts as functional, organism-based. The following applies: dose 1.25-20 µM.

Active and inactive are the calls of the source. The rule behind the calls is not given here.

Broadly, the IC50 is the concentration that gives 50% inhibition.

Regarding `CCCn1c(C)cc(=O)c(O)c1CNC(=O)c1ccc(OC)cc1`, in experiment [1], the IC50 is 5.2 µM.
Same read-out and setting: the same measure for `CCCn1c(C)cc(=O)c(O)c1CNC1CCCC1`: above 100 µM; for `O=C(NCc1cc(=O)c(O)cn1O)c1ccc(C(F)(F)F)cc1`: above 100 µM; for `CCCn1c(C)cc(=O)c(O)c1CNC(=O)Cc1ccc(F)cc1`: above 100 µM.
On to `CCn1c(C)cc(=O)c(O)c1CNS(=O)(=O)c1ccc(OC)cc1`, for which the IC50 in experiment [1] was above 100 µM.
As for `CCCCn1c(C)cc(=O)c(O)c1CNc1ccc(OC)cc1`, the IC50 in experiment [1] was 45.4 µM.
The same measure, in the same setting: the same measure for `CCn1c(C)cc(=O)c(O)c1CNC(=O)c1ccc(OC)cc1`: above 100 µM; for `CCn1c(C)cc(=O)c(O)c1CNC1CCCC1`: above 100 µM; for `CCCCCCC(=O)NCc1cc(=O)c(O)cn1O`: above 100 µM.
Consider `CCCCn1c(C)cc(=O)c(O)c1CNC(=O)c1ccccc1OC`, for which the IC50 in experiment [1] is 28.5 µM.
In the case of `Cc1c(O)c(=O)ccn1C`, in experiment [2], the outcome was inactive.
With `O=C(NCc1cc(=O)c(O)cn1O)c1ccccc1`, in experiment [1], the IC50 is above 100 µM.
Same read-out and setting: the same measure for `CCCCCCCC(=O)NCc1cc(=O)c(O)cn1O`: above 100 µM.
Same read-out and setting: the same measure for `CCCCCC(=O)NCc1c(O)c(=O)cc(C)n1CCCC`: 34.9 µM; for `CCCCn1c(C)cc(=O)c(O)c1CNC1CCCC1`: above 100 µM.
On the same count and under the same terms, for `CCCn1c(C)cc(=O)c(O)c1CNC(=O)c1ccccc1OC` the value was 62.9 µM; for `CC[C@H]1OC(=O)[C@H](C)[C@@H](O[C@H]2C[C@@](C)(OC)[C@@H](O)[C@H](C)O2)[C@H](C)[C@@H](O[C@@H]2O[C@H](C)C[C@H](N(C)C)[C@H]2O)[C@](C)(O)C[C@@H](C)CN(C)[C@H](C)[C@@H](O)[C@]1(C)O` [AZITHROMYCIN], 7.1 µM.
For the molecule `CCn1c(C)cc(=O)c(O)c1CNc1ccc(OC)cc1`, the IC50 in experiment [1] is above 100 µM.
For the molecule `CCCCCC(=O)NCc1cc(=O)c(O)cn1C`, the 50% inhibitory concentration (IC50) in experiment [1] is above 100 µM.
Still for that read-out and setting: the same measure for `CCCCn1c(C)cc(=O)c(O)c1CNC(=O)c1cccc(OC)c1`: 31.1 µM; for `CCCCCC(=O)NCc1c(O)c(=O)cc(C)n1CCC`: above 100 µM; for `COc1ccc(C(=O)NCc2cc(=O)c(O)cn2C)cc1`: above 100 µM.

The record behind these values is ChEMBL document CHEMBL5046248, “New Pqs Quorum Sensing System Inhibitor as an Antibacterial Synergist against Multidrug-Resistant Pseudomonas aeruginosa” (J Med Chem, 2022).
